Experimental data as given in patent publication US11873320B2 (REATA PHARMACEUTICALS HOLDINGS, LLC, priority 2013, dated 2024).
pEC50: −log10 of the molar value. Like-named read-outs stand apart in the source and are kept apart here.

What was measured:
[1] = metabolism in rodent liver microsomes; assay type: in vitro ADME, mice, rats; conditions: 60-minute incubation, NADPH and UGT
[2] = biological target: MRP-1 (Homo sapiens, UniProt P33527); assay: in vitro efflux by MRP-1; conditions: not told
Sequence of MRP-1 (P33527 whole entry): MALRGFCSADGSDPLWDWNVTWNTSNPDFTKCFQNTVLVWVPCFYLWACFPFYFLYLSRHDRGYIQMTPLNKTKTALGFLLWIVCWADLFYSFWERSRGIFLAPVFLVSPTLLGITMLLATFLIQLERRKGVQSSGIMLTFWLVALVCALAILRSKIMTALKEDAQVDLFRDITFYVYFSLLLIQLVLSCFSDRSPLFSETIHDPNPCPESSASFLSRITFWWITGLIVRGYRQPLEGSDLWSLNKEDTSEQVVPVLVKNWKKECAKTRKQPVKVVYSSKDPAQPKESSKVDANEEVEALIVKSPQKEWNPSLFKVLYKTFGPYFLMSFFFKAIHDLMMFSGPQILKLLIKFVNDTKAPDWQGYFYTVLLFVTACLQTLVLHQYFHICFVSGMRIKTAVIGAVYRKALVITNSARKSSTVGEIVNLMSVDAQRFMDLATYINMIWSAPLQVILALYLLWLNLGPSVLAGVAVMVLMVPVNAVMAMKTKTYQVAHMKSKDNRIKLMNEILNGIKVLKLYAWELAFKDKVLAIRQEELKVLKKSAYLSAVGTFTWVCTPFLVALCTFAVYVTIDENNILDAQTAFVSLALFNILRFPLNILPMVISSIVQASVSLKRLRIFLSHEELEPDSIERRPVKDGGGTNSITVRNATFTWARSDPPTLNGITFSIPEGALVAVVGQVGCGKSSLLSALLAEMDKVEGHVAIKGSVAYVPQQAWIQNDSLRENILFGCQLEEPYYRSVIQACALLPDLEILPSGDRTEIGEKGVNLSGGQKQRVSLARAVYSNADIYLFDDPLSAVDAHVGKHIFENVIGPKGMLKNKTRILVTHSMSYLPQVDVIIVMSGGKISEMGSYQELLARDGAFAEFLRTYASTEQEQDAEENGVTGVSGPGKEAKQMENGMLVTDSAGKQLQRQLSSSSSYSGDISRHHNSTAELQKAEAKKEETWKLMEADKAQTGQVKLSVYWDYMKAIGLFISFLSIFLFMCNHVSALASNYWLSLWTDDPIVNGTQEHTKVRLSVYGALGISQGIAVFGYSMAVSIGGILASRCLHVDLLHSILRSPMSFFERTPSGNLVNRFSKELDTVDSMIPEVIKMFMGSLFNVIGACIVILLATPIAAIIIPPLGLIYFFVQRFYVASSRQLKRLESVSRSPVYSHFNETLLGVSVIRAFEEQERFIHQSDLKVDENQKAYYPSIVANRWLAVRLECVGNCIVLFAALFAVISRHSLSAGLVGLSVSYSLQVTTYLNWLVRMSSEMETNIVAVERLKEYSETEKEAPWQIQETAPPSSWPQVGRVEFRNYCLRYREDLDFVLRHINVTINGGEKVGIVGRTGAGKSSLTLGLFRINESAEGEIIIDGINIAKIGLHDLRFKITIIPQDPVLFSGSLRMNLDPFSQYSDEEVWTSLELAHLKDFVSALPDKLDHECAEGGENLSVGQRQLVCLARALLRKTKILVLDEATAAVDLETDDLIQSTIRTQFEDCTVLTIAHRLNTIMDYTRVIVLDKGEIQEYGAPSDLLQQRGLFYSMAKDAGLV

[3] = test system: glutathione levels; assay: induction of glutathione levels, RAW264.7 mouse model; assay type: cell-based
Source text: Glutathione and NADPH are critical factors required for the maintenance of cellular redox capacity. […] Data shown are representative of two independent experiments.

[4] = test system: C2C12 muscle cells; assay: glycolytic intermediates in C2C12 myotubes; assay type: cell-based, rodent
[5] = test system: NADPH levels; assay: WST-1 absorbance as marker of NADPH in HCT-116 cells; assay type: cell-based; conditions: 24 hours
[6] = test system: NQO1 protein; assay: Nrf2 target protein levels in SH-SY5Y cells; assay type: cell-based, human; conditions: dose-dependent
Experimental: HMOX1 protein was not detected in untreated or RTA 408-treated SH-SY5Y cells. […] The same amount of 63170 (54.6 nM) was required.

[7] = test system: LPS-induced NO; assay: in vivo NO suppression after LPS, CD-1 mice; conditions: mouse
[8] = test system: bleomycin-induced pulmonary fibrosis; assay: bleomycin-induced pulmonary fibrosis in mice; assay type: in vivo, mouse; conditions: 10, 30, or 100 mg/kg, 39 days
Experimental: Bleomycin was given on Day 0. Daily weights were measured. BAL fluid cell counts were obtained at sacrifice. […] No significant improvement in chronic inflammation score, interstitial fibrosis, or number of fibrotic foci was observed.
On the last day of dosing, lung tissue was collected and histology was performed to evaluate the extent of inflammation and interstitial fibrosis. […] Additional evaluation was performed using a rat model of pulmonary fibrosis that has been extensively characterized at the Lovelace Respiratory Research Institute. In this study, rats were challenged with bleomycin or saline by intratracheal administration on day 0. […] For the remaining animals, bronchoalveolar lavage fluid was collected on day 28 for assessment of pro-inflammatory infiltrates, and lung tissue was analyzed for hydroxyproline levels and histopathology. Challenge with bleomycin sulfate induced a substantial release of neutrophils and an increase in soluble collagen in the BALF, as well as an increase in hydroxyproline in the lung.

[9] = test system: rats; assay: 28-day toxicity study in rats; assay type: in vivo, rat
Source text: One hypothesis for this effect is that AIMs directly or indirectly increase transaminase gene expression in the absence of cellular toxicity.

[10] = oral pharmacokinetics in monkeys; assay type: in vivo, monkey; conditions: 3 mg/kg
Experimental: Following oral administration of a suspension formulation at doses of 10 to 100 mg/kg, maximal concentrations were observed within 1 to 2 hours in mice, and within 1 to 24 hours in rats and monkeys.

[11] = test system: bleomycin-induced pulmonary fibrosis
[12] = test system: cynomolgus monkeys; conditions: for ALP (U/L) / ALT (U/L) / AST (U/L) / Albumin / BUN / Chol / Cr / Glucose / TG / Tot Bil / Tot Prot: Day 14
[13] = test system: genotoxicity (micronucleated polychromatic erythrocytes); assay: in vivo micronucleus study
[14] = test system: ovalbumin-induced asthma; assay: ovalbumin-induced asthma in mice; assay type: in vivo, mouse
Source text: Mice were sensitized with an IP injection of ovalbumin and aluminum hydroxide on Day 0 and Day 14 and challenged intranasally with ovalbumin in saline on Days 14, 25, 26, and 27. […] An increase in the number of T cells and B cells was also observed in the vehicle-treated mice.

CC1(C)CC[C@]2(NC(=O)C(C)(F)F)CC[C@]3(C)[C@H](C(=O)C=C4[C@@]5(C)C=C(C#N)C(=O)C(C)(C)[C@@H]5CC[C@]43C)[C@@H]2C1 [RTA 408, N-((4aS,6aR,6bS,8aR,12aS,14aR,14bS)-11-cyano-2,2,6a,6b,9,9,12a-heptamethyl-10,14-dioxo-1,2,3,4,4a,5,6,6a,6b,7,8,8a,9,10,12a,14,14a,14b-octadecahydropicen-4a-yl)-2,2-difluoropropanamide]
parent molecule remaining [1]: > 65%
MRP-1 substrate status [2]: not a substrate of MRP-1
pEC50 [3]: 8.00
intracellular pyruvate levels ([4]; 250 nM or 500 nM, 18 hours, P<0.0001): increased intracellular pyruvate levels
intracellular and extracellular lactate levels ([4]; 1 μM or 2 μM, 3 hours): significantly increased intracellular and extracellular lactate levels
WST-1 absorbance (NADPH marker) [5]: increased WST-1 absorbance in a dose-dependent manner
NQO1 protein levels [6]: increased NQO1 protein levels
NO in vivo [7]: dose-dependently suppresses NO in vivo
inflammation and interstitial fibrosis (histology) [8]: no statistically significant effects
transaminases [9]: Transaminase elevations
dose-normalized systemic exposure of loose-filled capsule vs suspension formulation [10]: somewhat lower
tolerability finding that stopped dosing on day 14 ([11]; 30 mg/kg): excessive dehydration and diarrhea
polymorphonuclear (PMN) cell infiltration into the lungs ([11]; 3 and 10 mg/kg, 28 days): significantly suppressed
collagen deposition (trichrome staining) ([11]; rat, in vivo): significant decrease in collagen deposition
NQO1, Txnrd, Gsr, and Gst enzyme activity in lungs ([11]; rats exposed to bleomycin): significantly and dose-dependently increased
ALP (U/L) ([12]; 10 mg/kg): 382 U/L
ALT (U/L) ([12]; 10 mg/kg): 46 U/L
AST (U/L) ([12]; 10 mg/kg): 38 U/L
Albumin ([12]; 10 mg/kg): 4 g/dL
BUN ([12]; 10 mg/kg): 27 mg/dL
Chol ([12]; 10 mg/kg): 144 mg/dL
Cr ([12]; 10 mg/kg): 0.68 mg/dL
Glucose ([12]; 10 mg/kg): 39 mg/dL
TG ([12]; 10 mg/kg): 82 mg/dL
Tot Bil ([12]; 10 mg/kg): 0.23 mg/dL
Tot Prot ([12]; 10 mg/kg): 7.2 g/dL
ALP (U/L) ([12]; 30 mg/kg): 416 U/L
ALT (U/L) ([12]; 30 mg/kg): 47 U/L
AST (U/L) ([12]; 30 mg/kg): 43 U/L
Albumin ([12]; 30 mg/kg): 4 g/dL
BUN ([12]; 30 mg/kg): 20 mg/dL
Chol ([12]; 30 mg/kg): 122 mg/dL
Cr ([12]; 30 mg/kg): 0.58 mg/dL
Glucose ([12]; 30 mg/kg): 53 mg/dL
TG ([12]; 30 mg/kg): 64 mg/dL
Tot Bil ([12]; 30 mg/kg): 0.2 mg/dL
Tot Prot ([12]; 30 mg/kg): 7.2 g/dL
ALP (U/L) ([12]; 100 mg/kg): 390 U/L
ALT (U/L) ([12]; 100 mg/kg): 43 U/L
AST (U/L) ([12]; 100 mg/kg): 37 U/L
Albumin ([12]; 100 mg/kg): 3.2 g/dL
BUN ([12]; 100 mg/kg): 24 mg/dL
Chol ([12]; 100 mg/kg): 93 mg/dL
Cr ([12]; 100 mg/kg): 0.55 mg/dL
Glucose ([12]; 100 mg/kg): 32 mg/dL
TG ([12]; 100 mg/kg): 61 mg/dL
Tot Bil ([12]; 100 mg/kg): 0.18 mg/dL
Tot Prot ([12]; 100 mg/kg): 6 g/dL
toxicity suggested by clinical chemistry data ([12]; 14 days): no obvious toxicity
mRNAs of Nrf2 target genes in liver and lung ([12]; PO QD×14): induces Nrf2 target genes in monkey tissues
tolerability ([12]; all doses, 14 days): well-tolerated without adverse clinical signs
Nrf2 target enzyme activity (NQO1, GSR) in various tissues ([12]; monkey, in vivo): induces Nrf2 target enzyme activity
Change from Control (%) ([13]; 125 mg/kg, 24-h timepoint): −8%
Number of MPCE/1000 PCE (Mean +/− SD) ([13]; 125 mg/kg, 24-h timepoint): 0.3 ± 0.27
Number of MPCE/PCE Scored ([13]; 125 mg/kg, 24-h timepoint): 3/10000
PCE/Total Erythrocytes (Mean +/− SD) ([13]; 125 mg/kg, 24-h timepoint): 0.543 ± 0.03
Change from Control (%) ([13]; 125 mg/kg, 48-h timepoint): −14%
Number of MPCE/1000 PCE (Mean +/− SD) ([13]; 125 mg/kg, 48-h timepoint): 0.2 ± 0.27
Number of MPCE/PCE Scored ([13]; 125 mg/kg, 48-h timepoint): 2/10000
PCE/Total Erythrocytes (Mean +/− SD) ([13]; 125 mg/kg, 48-h timepoint): 0.453 ± 0.03
Change from Control (%) ([13]; 250 mg/kg, 24-h timepoint): −12%
Number of MPCE/1000 PCE (Mean +/− SD) ([13]; 250 mg/kg, 24-h timepoint): 0.3 ± 0.27
Number of MPCE/PCE Scored ([13]; 250 mg/kg, 24-h timepoint): 3/10000
PCE/Total Erythrocytes (Mean +/− SD) ([13]; 250 mg/kg, 24-h timepoint): 0.520 ± 0.06
Change from Control (%) ([13]; 250 mg/kg, 48-h timepoint): −26%
Number of MPCE/1000 PCE (Mean +/− SD) ([13]; 250 mg/kg, 48-h timepoint): 0.2 ± 0.27
Number of MPCE/PCE Scored ([13]; 250 mg/kg, 48-h timepoint): 2/10000
PCE/Total Erythrocytes (Mean +/− SD) ([13]; 250 mg/kg, 48-h timepoint): 0.391 ± 0.02
Change from Control (%) ([13]; 500 mg/kg, 24-h timepoint): −28%
Number of MPCE/1000 PCE (Mean +/− SD) ([13]; 500 mg/kg, 24-h timepoint): 0.0 ± 0.00
Number of MPCE/PCE Scored ([13]; 500 mg/kg, 24-h timepoint): 0/10000
PCE/Total Erythrocytes (Mean +/− SD) ([13]; 500 mg/kg, 24-h timepoint): 0.426 ± 0.07
Change from Control (%) ([13]; 500 mg/kg, 48-h timepoint): −36%
Number of MPCE/1000 PCE (Mean +/− SD) ([13]; 500 mg/kg, 48-h timepoint): 0.3 ± 0.45
Number of MPCE/PCE Scored ([13]; 500 mg/kg, 48-h timepoint): 3/10000
PCE/Total Erythrocytes (Mean +/− SD) ([13]; 500 mg/kg, 48-h timepoint): 0.339 ± 0.05
Change from Control (%) ([13]; 1000 mg/kg, 24-h timepoint): −15%
Number of MPCE/1000 PCE (Mean +/− SD) ([13]; 1000 mg/kg, 24-h timepoint): 0.2 ± 0.27
Number of MPCE/PCE Scored ([13]; 1000 mg/kg, 24-h timepoint): 2/10000
PCE/Total Erythrocytes (Mean +/− SD) ([13]; 1000 mg/kg, 24-h timepoint): 0.498 ± 0.05
Change from Control (%) ([13]; 1000 mg/kg, 48-h timepoint): −35%
Number of MPCE/1000 PCE (Mean +/− SD) ([13]; 1000 mg/kg, 48-h timepoint): 0.1 ± 0.22
Number of MPCE/PCE Scored ([13]; 1000 mg/kg, 48-h timepoint): 1/10000
PCE/Total Erythrocytes (Mean +/− SD) ([13]; 1000 mg/kg, 48-h timepoint): 0.344 ± 0.04
Change from Control (%) ([13]; 1500 mg/kg, 24-h timepoint): −15%
Number of MPCE/1000 PCE (Mean +/− SD) ([13]; 1500 mg/kg, 24-h timepoint): 0.4 ± 0.22
Number of MPCE/PCE Scored ([13]; 1500 mg/kg, 24-h timepoint): 4/10000
PCE/Total Erythrocytes (Mean +/− SD) ([13]; 1500 mg/kg, 24-h timepoint): 0.499 ± 0.06
Change from Control (%) ([13]; 1500 mg/kg, 48-h timepoint): −39%
Number of MPCE/1000 PCE (Mean +/− SD) ([13]; 1500 mg/kg, 48-h timepoint): 0.4 ± 0.42
Number of MPCE/PCE Scored ([13]; 1500 mg/kg, 48-h timepoint): 4/10000
PCE/Total Erythrocytes (Mean +/− SD) ([13]; 1500 mg/kg, 48-h timepoint): 0.376 ± 0.05
Change from Control (%) ([13]; 2000 mg/kg, 24-h timepoint): −10%
Number of MPCE/1000 PCE (Mean +/− SD) ([13]; 2000 mg/kg, 24-h timepoint): 0.2 ± 0.27
Number of MPCE/PCE Scored ([13]; 2000 mg/kg, 24-h timepoint): 2/10000
PCE/Total Erythrocytes (Mean +/− SD) ([13]; 2000 mg/kg, 24-h timepoint): 0.531 ± 0.05
Change from Control (%) ([13]; 2000 mg/kg, 48-h timepoint): −32%
Number of MPCE/1000 PCE (Mean +/− SD) ([13]; 2000 mg/kg, 48-h timepoint): 0.1 ± 0.22
Number of MPCE/PCE Scored ([13]; 2000 mg/kg, 48-h timepoint): 1/10000
PCE/Total Erythrocytes (Mean +/− SD) ([13]; 2000 mg/kg, 48-h timepoint): 0.360 ± 0.03
genotoxicity in the in vivo micronucleus study ([13]; 125-2000 mg/kg): 63415 is Negative for Genotoxicity
B cells within the airways ([14]; 30 mg/kg): significantly reduced the number and percentage of B cells
macrophages detected in the airways ([14]; 3 and 30 mg/kg): significantly reduced the number of macrophages
